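All cell lines were grown in 96-well plates and treated with compound for 48 hours. GI50 = concentration required for 50% inhibition of growth. The concentration for full growth arrest is given as TGI.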
Columns and labels:
Assay in all cases: inhibition of tumour cell growth, NCI panel, 48 h
786-0 renal = test system: 786-0 renal
A498 renal = test system: A498 renal
A549 NSCLC = test system: A549 NSCLC
ACHN renal = test system: ACHN renal
BT-549 breast = test system: BT-549 breast
CAKI-1 renal = test system: CAKI-1 renal
CCRF-CEM leukemia = test system: CCRF-CEM leukemia
COLO 205 colon = test system: COLO 205 colon
DU-145 prostate = test system: DU-145 prostate
EKVX NSCLC = test system: EKVX NSCLC
HCC-2998 colon = test system: HCC-2998 colon
HCT-116 colon = test system: HCT-116 colon
HCT-15 colon = test system: HCT-15 colon
HL-60(TB) leukemia = test system: HL-60(TB) leukemia
HOP-62 NSCLC = test system: HOP-62 NSCLC
HOP-92 NSCLC = test system: HOP-92 NSCLC
HS 578T breast = test system: HS 578T breast
HT29 colon = test system: HT29 colon
IGROV1 ovarian = test system: IGROV1 ovarian
K-562 leukemia = test system: K-562 leukemia
KM12 colon = test system: KM12 colon
LOX IMVI melanoma = test system: LOX IMVI melanoma
M14 melanoma = test system: M14 melanoma
MALME-3M melanoma = test system: MALME-3M melanoma
MCF7 breast = test system: MCF7 breast
MDA-MB-231 breast = test system: MDA-MB-231 breast
MDA-MB-435 = test system: MDA-MB-435
MOLT-4 leukemia = test system: MOLT-4 leukemia
NCI-H226 lung = test system: NCI-H226 lung
NCI-H23 lung = test system: NCI-H23 lung
NCI-H460 lung = test system: NCI-H460 lung
NCI-H522 lung = test system: NCI-H522 lung
NCI/ADR-RES ovarian = test system: NCI/ADR-RES ovarian
OVCAR-4 ovarian = test system: OVCAR-4 ovarian
OVCAR-5 ovarian = test system: OVCAR-5 ovarian
OVCAR-8 ovarian = test system: OVCAR-8 ovarian
PC-3 prostate = test system: PC-3 prostate
RPMI-8226 leukemia = test system: RPMI-8226 leukemia
RXF 393 renal = test system: RXF 393 renal
SF-268 CNS = test system: SF-268 CNS
SF-295 CNS = test system: SF-295 CNS
SF-539 CNS = test system: SF-539 CNS
SK-MEL-2 melanoma = test system: SK-MEL-2 melanoma
SK-MEL-28 melanoma = test system: SK-MEL-28 melanoma
SK-MEL-5 melanoma = test system: SK-MEL-5 melanoma
SK-OV-3 ovarian = test system: SK-OV-3 ovarian
SN12C renal = test system: SN12C renal
SNB-19 CNS = test system: SNB-19 CNS
SNB-75 CNS = test system: SNB-75 CNS
SR leukemia = test system: SR leukemia
SW-620 colon = test system: SW-620 colon
T-47D breast = test system: T-47D breast
TK-10 renal = test system: TK-10 renal
U251 CNS = test system: U251 CNS
UACC-257 melanoma = test system: UACC-257 melanoma
UACC-62 melanoma = test system: UACC-62 melanoma
UO-31 renal = test system: UO-31 renal

SMILES: Cc1cc2nc3c4cc(C#N)ccc4n(CCN(C)C)c3nc2cc1C
- GI50 (786-0 renal): 1340 nM
- TGI (786-0 renal): > 20000 nM
- GI50 (A498 renal): 1930 nM
- GI50 (A549 NSCLC): 666 nM
- TGI (A549 NSCLC): 3020 nM
- GI50 (ACHN renal): 324 nM
- TGI (ACHN renal): 1480 nM
- GI50 (BT-549 breast): 2400 nM
- GI50 (CAKI-1 renal): 381 nM
- TGI (CAKI-1 renal): 3420 nM
- GI50 (CCRF-CEM leukemia): 1220 nM
- TGI (CCRF-CEM leukemia): > 33800 nM
- GI50 (COLO 205 colon): 456 nM
- TGI (COLO 205 colon): 1630 nM
- GI50 (DU-145 prostate): 1100 nM
- TGI (DU-145 prostate): > 32700 nM
- GI50 (EKVX NSCLC): 1710 nM
- TGI (EKVX NSCLC): > 23800 nM
- GI50 (HCC-2998 colon): 1030 nM
- TGI (HCC-2998 colon): 2440 nM
- GI50 (HCT-116 colon): 429 nM
- TGI (HCT-116 colon): 1760 nM
- GI50 (HCT-15 colon): 1010 nM
- TGI (HCT-15 colon): 6170 nM
- GI50 (HL-60(TB) leukemia): 1160 nM
- TGI (HL-60(TB) leukemia): 4370 nM
- GI50 (HOP-62 NSCLC): 755 nM
- GI50 (HOP-92 NSCLC): 634 nM
- TGI (HOP-92 NSCLC): 4580 nM
- GI50 (HS 578T breast): 1590 nM
- TGI (HS 578T breast): > 21500 nM
- GI50 (HT29 colon): 546 nM
- TGI (HT29 colon): 6800 nM
- GI50 (IGROV1 ovarian): 1070 nM
- TGI (IGROV1 ovarian): 5600 nM
- GI50 (K-562 leukemia): 682 nM
- TGI (K-562 leukemia): > 34100 nM
- GI50 (KM12 colon): 1690 nM
- TGI (KM12 colon): > 29700 nM
- GI50 (LOX IMVI melanoma): 601 nM
- TGI (LOX IMVI melanoma): 2800 nM
- GI50 (M14 melanoma): 1360 nM
- TGI (M14 melanoma): 3820 nM
- GI50 (MALME-3M melanoma): 1380 nM
- TGI (MALME-3M melanoma): 3600 nM
- GI50 (MCF7 breast): 1200 nM
- TGI (MCF7 breast): 6720 nM
- GI50 (MDA-MB-231 breast): 1060 nM
- TGI (MDA-MB-231 breast): > 20600 nM
- GI50 (MDA-MB-435): 1010 nM
- TGI (MDA-MB-435): 3390 nM
- GI50 (MOLT-4 leukemia): 429 nM
- TGI (MOLT-4 leukemia): > 32600 nM
- GI50 (NCI-H226 lung): 1230 nM
- TGI (NCI-H226 lung): 8430 nM
- GI50 (NCI-H23 lung): 507 nM
- TGI (NCI-H23 lung): 2370 nM
- GI50 (NCI-H460 lung): 416 nM
- TGI (NCI-H460 lung): 2510 nM
- GI50 (NCI-H522 lung): 505 nM
- TGI (NCI-H522 lung): 1960 nM
- GI50 (NCI/ADR-RES ovarian): 637 nM
- TGI (NCI/ADR-RES ovarian): 7080 nM
- GI50 (OVCAR-4 ovarian): 1650 nM
- TGI (OVCAR-4 ovarian): 5730 nM
- GI50 (OVCAR-5 ovarian): 1450 nM
- TGI (OVCAR-5 ovarian): > 22600 nM
- GI50 (OVCAR-8 ovarian): 584 nM
- TGI (OVCAR-8 ovarian): 3920 nM
- GI50 (PC-3 prostate): 1490 nM
- TGI (PC-3 prostate): > 21100 nM
- GI50 (RPMI-8226 leukemia): 1100 nM
- TGI (RPMI-8226 leukemia): 4610 nM
- GI50 (RXF 393 renal): 918 nM
- TGI (RXF 393 renal): 2830 nM
- GI50 (SF-268 CNS): 1620 nM
- TGI (SF-268 CNS): > 20700 nM
- GI50 (SF-295 CNS): 932 nM
- TGI (SF-295 CNS): > 22500 nM
- GI50 (SF-539 CNS): 966 nM
- GI50 (SK-MEL-2 melanoma): 2180 nM
- TGI (SK-MEL-2 melanoma): 6150 nM
- GI50 (SK-MEL-28 melanoma): 2270 nM
- GI50 (SK-MEL-5 melanoma): 1690 nM
- TGI (SK-MEL-5 melanoma): 3510 nM
- GI50 (SK-OV-3 ovarian): 919 nM
- TGI (SK-OV-3 ovarian): 9980 nM
- GI50 (SN12C renal): 770 nM
- TGI (SN12C renal): > 20800 nM
- GI50 (SNB-19 CNS): 978 nM
- TGI (SNB-19 CNS): > 25200 nM
- GI50 (SNB-75 CNS): 951 nM
- TGI (SNB-75 CNS): 2670 nM
- GI50 (SR leukemia): 362 nM
- TGI (SR leukemia): 3590 nM
- GI50 (SW-620 colon): 411 nM
- TGI (SW-620 colon): 1970 nM
- GI50 (T-47D breast): 2300 nM
- GI50 (TK-10 renal): 1980 nM
- TGI (TK-10 renal): > 23200 nM
- GI50 (U251 CNS): 860 nM
- GI50 (UACC-257 melanoma): 686 nM
- TGI (UACC-257 melanoma): 2060 nM
- GI50 (UACC-62 melanoma): 1400 nM
- TGI (UACC-62 melanoma): 5210 nM
- GI50 (UO-31 renal): 312 nM
- TGI (UO-31 renal): 2240 nM

Source: PubChem BioAssay (NCI)
